According to patent US20230050653A1, “ROCK INHIBITOR AND PREPARATION METHOD THEREFOR AND USE THEREOF” (WUHAN LL SCIENCE AND TECHNOLOGY DEVELOPMENT CO., LTD., priority 2019, published 2023):

Key:
[1] = biological target: T1, ROCK1 kinase (Homo sapiens, UniProt Q13464); assay: In vitro evaluation of ROCK1 kinase selectivity (HTRF KinEASE-STK time-resolved fluorometric assay); format: biochemical
T1 construct: purchased Invitrogen
In short: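 Recombinant ROCK1 (0.4 ng/μL final) preincubated with compound (1% DMSO) for 0.5 h at room temperature in buffer with 5 mM MgCl2 and 1 mM DTT. Reaction started with ATP and biotinylated STK-substrate 2 (3.53 μM and 1 μM final), run 2 h at room temperature. HTRF detection with STK antibody-Cryptate/streptavidin-XL665 after about 1 h.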

[2] = biological target: T2, ROCK2 kinase (Homo sapiens, UniProt O75116); assay: In vitro evaluation of ROCK2 kinase activity (HTRF KinEASE-STK time-resolved fluorometric assay); format: biochemical
T2 construct: purchased Invitrogen PV3759
T2 sequence (O75116 whole entry): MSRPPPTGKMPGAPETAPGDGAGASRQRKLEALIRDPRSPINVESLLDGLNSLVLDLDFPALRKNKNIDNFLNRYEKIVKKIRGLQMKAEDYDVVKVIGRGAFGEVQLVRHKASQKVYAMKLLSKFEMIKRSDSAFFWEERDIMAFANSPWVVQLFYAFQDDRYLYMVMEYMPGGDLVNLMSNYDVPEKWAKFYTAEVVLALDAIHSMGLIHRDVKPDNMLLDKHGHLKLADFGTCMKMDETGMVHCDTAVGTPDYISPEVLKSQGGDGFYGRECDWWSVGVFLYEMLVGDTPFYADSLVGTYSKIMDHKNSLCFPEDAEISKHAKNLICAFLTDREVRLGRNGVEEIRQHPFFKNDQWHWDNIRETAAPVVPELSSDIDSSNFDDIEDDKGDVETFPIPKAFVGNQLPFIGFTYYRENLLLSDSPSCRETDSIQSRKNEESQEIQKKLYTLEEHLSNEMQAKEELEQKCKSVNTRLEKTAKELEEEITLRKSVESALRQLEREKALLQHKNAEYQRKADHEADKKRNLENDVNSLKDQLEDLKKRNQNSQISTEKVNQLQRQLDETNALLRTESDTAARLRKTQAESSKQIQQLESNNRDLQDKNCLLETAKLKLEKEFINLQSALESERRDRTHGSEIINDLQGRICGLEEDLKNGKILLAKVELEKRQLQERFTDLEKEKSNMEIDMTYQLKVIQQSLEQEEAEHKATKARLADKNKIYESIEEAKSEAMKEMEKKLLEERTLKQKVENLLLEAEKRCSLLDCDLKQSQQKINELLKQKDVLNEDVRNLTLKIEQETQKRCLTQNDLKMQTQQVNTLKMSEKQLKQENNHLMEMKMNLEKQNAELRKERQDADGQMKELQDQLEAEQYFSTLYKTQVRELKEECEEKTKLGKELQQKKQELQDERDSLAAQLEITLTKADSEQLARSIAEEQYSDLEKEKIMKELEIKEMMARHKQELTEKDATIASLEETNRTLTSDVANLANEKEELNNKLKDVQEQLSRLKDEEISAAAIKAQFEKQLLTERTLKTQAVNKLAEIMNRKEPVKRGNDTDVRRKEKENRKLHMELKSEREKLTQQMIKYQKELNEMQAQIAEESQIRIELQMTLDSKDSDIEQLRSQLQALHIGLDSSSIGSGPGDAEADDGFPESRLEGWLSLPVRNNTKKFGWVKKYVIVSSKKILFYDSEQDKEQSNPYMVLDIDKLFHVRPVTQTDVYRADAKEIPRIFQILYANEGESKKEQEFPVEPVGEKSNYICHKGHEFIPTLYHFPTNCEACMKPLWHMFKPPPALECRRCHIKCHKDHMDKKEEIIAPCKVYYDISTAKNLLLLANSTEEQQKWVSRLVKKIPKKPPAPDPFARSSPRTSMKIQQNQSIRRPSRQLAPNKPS
In short: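 ROCK2 (0.4 ng/μL final) was preincubated with compound (1% DMSO) for 0.5 h at room temperature in kinase buffer with 5 mM MgCl2, 1 mM DTT. Reaction with ATP 6.739 μM and STK-substrate 2-biotin 1 μM ran 2 h at room temperature; HTRF read-out after ~1 h detection.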

[3] = In vivo pharmacokinetic study in mice; conditions: mouse, plasma
Excerpt: In Vivo Pharmacokinetic Study of Compounds Disclosed Herein in Mice SPF-grade mice (SPF (Beijing) Biotechnology Co., Ltd.) were fasted overnight (without water deprivation) after adaptive feeding, and then received the compound of the present disclosure by intragastrical administration and bolus injection at tail vein. After administration, plasma of mice was collected at specific time points, and the concentration of the compound in the plasma was detected by LC-MS/MS (AB SCIEX Qtrap4500). The PK parameters of the compounds were statistically analyzed and calculated (WinNonlin V5.2, Pharsight) to show the pharmacokinetic properties of the compounds in mice.

[4] = In vitro cytotoxicity assay in HepG2 cells, CCK-8 method; conditions: human
Experimental: (§1) In vitro cytotoxicity assay for the compounds disclosed herein was performed in HepG2 cells using the CCK-8 method. HepG2 cells (Beina Bio) in the logarithmic growth phase were collected, the concentration of cell suspension was adjusted, and then the cells were plated on a 96-well cell culture plate at 50,000 cells/well. The cells were then incubated overnight in a cell incubator (5%, 37° C.), and after 80-90% cell confluence was achieved, test compound at each concentration gradient or vehicle (DMSO) was added after medium change. The resulting mixture was incubated in the cell incubator (5%, 37° C.) for 48 h. After the treatment, the medium in the plate was discarded. The plate was washed twice with PBS, added with CCK-8 working solution (Beyotime) at 100 μL per well, and then incubated at 37° C. for 1.5 h in the dark. Absorbance at OD450 nm was measured for each well on a microplate reader, and CC50 value of each compound was analyzed and calculated.

[5] = system: HepG2 cells
Experimental: as §1

T1 sequence (Q13464 whole entry): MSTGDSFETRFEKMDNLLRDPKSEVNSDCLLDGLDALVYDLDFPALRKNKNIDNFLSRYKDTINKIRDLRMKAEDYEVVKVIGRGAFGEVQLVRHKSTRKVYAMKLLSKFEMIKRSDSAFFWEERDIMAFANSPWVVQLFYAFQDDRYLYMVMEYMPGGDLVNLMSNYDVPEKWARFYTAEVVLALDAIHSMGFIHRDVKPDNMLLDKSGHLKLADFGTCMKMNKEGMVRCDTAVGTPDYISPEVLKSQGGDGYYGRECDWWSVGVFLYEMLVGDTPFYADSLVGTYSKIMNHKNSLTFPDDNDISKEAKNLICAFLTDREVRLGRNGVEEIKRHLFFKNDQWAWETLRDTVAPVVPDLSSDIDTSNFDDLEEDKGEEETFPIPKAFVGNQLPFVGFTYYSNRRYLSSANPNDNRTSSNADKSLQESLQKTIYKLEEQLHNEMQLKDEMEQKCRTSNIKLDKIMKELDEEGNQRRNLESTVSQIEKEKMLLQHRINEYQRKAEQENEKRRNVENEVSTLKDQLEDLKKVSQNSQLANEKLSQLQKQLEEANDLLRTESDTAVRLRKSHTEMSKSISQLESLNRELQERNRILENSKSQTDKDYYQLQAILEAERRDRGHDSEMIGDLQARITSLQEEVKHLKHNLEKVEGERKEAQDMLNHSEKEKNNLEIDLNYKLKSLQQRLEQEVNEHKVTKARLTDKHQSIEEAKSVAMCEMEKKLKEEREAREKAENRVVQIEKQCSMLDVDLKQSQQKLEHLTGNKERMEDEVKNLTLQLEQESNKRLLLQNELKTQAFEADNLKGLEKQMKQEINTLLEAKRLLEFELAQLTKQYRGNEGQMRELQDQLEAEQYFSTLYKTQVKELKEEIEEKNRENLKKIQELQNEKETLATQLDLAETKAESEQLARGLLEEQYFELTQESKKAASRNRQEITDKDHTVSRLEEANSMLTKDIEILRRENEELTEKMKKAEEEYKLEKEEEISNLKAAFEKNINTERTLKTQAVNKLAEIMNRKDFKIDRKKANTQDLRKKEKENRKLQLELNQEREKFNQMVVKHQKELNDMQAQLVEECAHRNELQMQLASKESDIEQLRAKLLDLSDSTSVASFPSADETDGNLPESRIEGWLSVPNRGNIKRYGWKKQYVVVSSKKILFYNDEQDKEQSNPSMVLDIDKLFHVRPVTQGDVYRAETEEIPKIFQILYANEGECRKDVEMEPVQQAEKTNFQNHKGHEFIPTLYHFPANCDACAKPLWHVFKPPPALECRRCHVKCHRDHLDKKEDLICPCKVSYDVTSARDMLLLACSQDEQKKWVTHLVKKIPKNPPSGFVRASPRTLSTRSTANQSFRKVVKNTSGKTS

Row | IC50 [1] [nM] | IC50 [2] [nM] | SMILES | CC50 at 48 h [4] [nM] | also measured
1 | ≤ 50 | ≤ 50 | COc1cc(F)cc(CNC(=O)N2CCc3cc(-c4cn[nH]c4)ccc32)c1 [Compound T202, N-(3-fluoro-5-methoxybenzyl)-5-(1H-pyrazol-4-yl)indoline-1-carboxamide] | > 50000 | bioavailability ([3]; 3 mg/kg Po vs Iv): 90.3%; AUC(0-t) ([3]; Iv, 3 mg/kg): 1740 ng·h/mL; Cmax ([3]; Iv, 3 mg/kg): 2340 ng/mL; AUC(0-t) ([3]; Po, 3 mg/kg): 1570 ng·h/mL; Cmax ([3]; Po, 3 mg/kg): 807 ng/mL
2 | – | – | COc1cc(F)cc(C(=O)NC(=O)c2cn(C)c3cc(-c4cn[nH]c4)ccc23)c1 [Compound T203, 1-methyl-6-(1H-pyrazol-4-yl)-1H-indole-3-carboxylic acid-3-fluoro-5-methoxy-benzoylamide] | – | CC50 [5]: > 50000 nM
3 | 50 to 500 | ≤ 50 | COc1cccc(CNC(=O)N2CCc3cc(-c4c[nH]nc4N)c(F)cc32)c1 [Compound T345, 5-(3-amino-1H-pyrazol-4-yl)-6-fluoro-N-(3-methoxybenzyl)indoline-1-carboxamide] | 40800 | bioavailability ([3]; 1 mg/kg Po vs Iv): 49.1%; AUC(0-t) ([3]; Iv, 1 mg/kg): 1260 ng·h/mL; Cmax ([3]; Iv, 1 mg/kg): 977 ng/mL; AUC(0-t) ([3]; Po, 1 mg/kg): 618 ng·h/mL; Cmax ([3]; Po, 1 mg/kg): 322 ng/mL
4 | 50 to 500 | 50 to 500 | O=C(NC1CCCC1)c1cccc([C@H](CO)NC(=O)N2CCc3cc(-c4cn[nH]c4)c(F)cc32)c1 [Compound T356-R, (R)-N-(1-(3-(cyclopentylcarbamoyl)phenyl)-2-hydroxyethyl)-6-fluoro-5-(1H-pyrazol-4-yl)indoline-1-carboxamide] | > 200000 | –
5 | ≤ 50 | ≤ 50 | COc1cccc(CNC(=O)N2CCc3cc(-c4c[nH]nc4F)c(F)cc32)c1 [Compound T357, 6-fluoro-5-(3-fluoro-1H-pyrazol-4-yl)-N-(3-methoxybenzyl)indoline-1-carboxamide] | 96000 | bioavailability ([3]; 1 mg/kg Po vs Iv): 71.1%; AUC(0-t) ([3]; Iv, 1 mg/kg): 1090 ng·h/mL; Cmax ([3]; Iv, 1 mg/kg): 811 ng/mL; AUC(0-t) ([3]; Po, 1 mg/kg): 775 ng·h/mL; Cmax ([3]; Po, 1 mg/kg): 352 ng/mL
6 | 50 to 500 | ≤ 50 | COc1cccc(CNC(=O)c2ncn3cc(-c4cn[nH]c4)ccc23)c1 [Compound T361, N-(3-methoxybenzyl)-6-(1H-pyrazol-4-yl)imidazo[1,5-a]pyridine-1-carboxamide] | > 100000 | –
7 | 50 to 500 | ≤ 50 | O=C(NCc1cccc(OCC2CC2)c1)N1CCc2cc(-c3c[nH]nc3F)c(F)cc21 [Compound T380, N-(3-(cyclopropylmethoxy)benzyl)-6-fluoro-5-(3-fluoro-1H-pyrazol-4-yl)indoline-1-carboxamide] | 35300 | –
8 | ≤ 50 | ≤ 50 | COc1cc(CNC(=O)N2CCc3cc(-c4cn[nH]c4F)c(F)cc32)ccc1F [Compound T384, 6-fluoro-5-(5-fluoro-1H-pyrazol-4-yl)-N-(4-fluoro-3-methoxybenzyl)indoline-1-carboxamide] | > 100000 | –
9 | 50 to 500 | ≤ 50 | COc1cc(F)cc(CNC(=O)N2CCc3cc(-c4c[nH]nc4N)c(F)cc32)c1 [Compound T385, 5-(3-amino-1H-pyrazol-4-yl)-6-fluoro-N-(3-fluoro-5-methoxybenzyl)indoline-1-carboxamide] | > 100000 | –
10 | ≤ 50 | ≤ 50 | O=C(NCc1cc(F)cc(F)c1)N1CCc2cc(-c3cn[nH]c3F)c(F)cc21 [Compound T387, N-(3,5-difluorobenzyl)-6-fluoro-5-(5-fluoro-1H-pyrazol-4-yl)indoline-1-carboxamide] | > 100000 | bioavailability ([3]; 1 mg/kg Po vs Iv): 82.8%; AUC(0-t) ([3]; Iv, 1 mg/kg): 753 ng·h/mL; Cmax ([3]; Iv, 1 mg/kg): 492 ng/mL; AUC(0-t) ([3]; Po, 1 mg/kg): 623 ng·h/mL; Cmax ([3]; Po, 1 mg/kg): 188 ng/mL
11 | ≤ 50 | ≤ 50 | COc1cccc(CNC(=O)c2ncn3cc(-c4cn[nH]c4F)ccc23)c1 [Compound T391, 6-(5-fluoro-1H-pyrazol-4-yl)-N-(3-methoxybenzyl)imidazo (1,5-a)pyridine-1-carboxamide] | > 100000 | –
